Measured values from patent US20040092521A1, “Bicyclic-substituted amines as histamine-3 receptor ligands” (priority 2002, published 2004).
Counter-ions that a name gives are not always drawn.

| SMILES | melting point |
| --- | --- |
| C[C@@H]1CCCN1CCc1ccc2cc(-c3ccc(C(F)(F)F)cc3)ccc2n1 (as salt: hydrochloride) [Example 47, 2-{2-[(2R)-2-methyl-1-pyrrolidinyl]ethyl}-6-[4-(trifluoromethyl)phenyl]quinoline] | 143 to 145 °C (dec.) |
| C[C@@H]1CCCN1CCc1ccc2cc(-c3cccnc3)ccc2n1 (as salt: hydrochloride) [Example 51, 2-{2-[(2R)-2-methyl-1-pyrrolidinyl]ethyl}-6-(3-pyridinyl)quinoline] | 205 to 207 °C |
| C[C@@H]1CCCN1CCc1ccc2cc(C(=O)c3cccc(F)c3)ccc2n1 (as salt: hydrochloride) [Example 50, (3-fluorophenyl)(2-{2-[(2R)-2-methyl-1-pyrrolidinyl]ethyl}-6-quinolinyl)methanone] | 162 to 164 °C (dec.) |
| C[C@@H]1CCCN1CCc1ccc2cc(-c3cccc(C#N)c3)ccc2c1 [Example 7, 3-(6-{2-[(2R)-2-methyl-1-pyrrolidinyl]ethyl}-2-naphthyl)benzonitrile] | 228.5 to 231.6 °C |
| C[C@@H]1CCCN1CCc1ccc2cc(Br)ccc2c1 (as salt: HCl) [Example 2, (2R)-1-[2-(6-bromo-2-naphthyl)ethyl]-2-methylpyrrolidine] | 247.3 to 250.7 °C |
| COc1ccc(-c2ccc3nc(CCN4CCC[C@H]4C)ccc3c2)cc1 (as salt: hydrochloride) [Example 46, 6-(4-methoxyphenyl)-2-{2-[(2R)-2-methyl-1-pyrrolidinyl]ethyl}quinoline] | 165 °C (dec.) |
| C[C@@H]1CCCN1Cc1ccc2cc(-c3ccc(C#N)cc3)ccc2c1 (as salt: hydrochloride) [Example 6, 4-(6-{[(2R)-2-methyl-1-pyrrolidinyl]methyl}-2-naphthyl)benzonitrile] | 212.6 to 213.6 °C |
| C[C@@H]1CCCN1CCc1ccc2cc(-c3ccc(C#N)cc3)ccc2n1 (as salt: tartrate) [Example 42, 4-(2-{2-[(2R)-2-methyl-1-pyrrolidinyl]ethyl}-6-quinolinyl)benzonitrile] | 164 °C |
| C[C@@H]1CCCN1CCc1ccc2cc(-c3ccc(F)cc3)ccc2n1 (as salt: hydrochloride) [Example 43, 6-(4-fluorophenyl)-2-{2-[(2R)-2-methyl-1-pyrrolidinyl]ethyl}quinoline] | 145 °C |
